We go through one compound from article PMC9532703, “A novel small molecule RK-019 inhibits FGFR2-amplification gastric cancer cell proliferation and induces apoptosis in vitro and in vivo” (Frontiers in Pharmacology, 2022).

Data set [1] relates to FGFR2 phosphorylation and downstream proteins in SNU-16 cells. The data set is described as follows: Western blot of FGFR signal proteins. It is filed as cell-based. The procedure:
The cells treated with RK-019 at indicated concentration for 24 h were harvested and lysed in 1× RIPA buffer (20e188, MilliporeSigma, Burlington, MA, United States), which contained protease inhibitor cocktail (B14001, Bimake, Houston, TX, United States) and phosphatase inhibitor cocktail (B15001, Bimake), for 30 min and equalized by concentration of the total protein before loading. Using sodium dodecyl sulphate - polyacrylamide gel electrophoresis (SDS-PAGE) to separate the protein sample and transfer to PVDF membranes (ISEQ00010, MilliporeSigma). The membranes were incubated with relevant primary antibody and corresponding HRP-labeled secondary antibody. Then, chemiluminescence was used to detect target bands. ImageJ software were used to make the gradation analysis.
In western blot, results analysis of relative phosphorylation quantification level, data were firstly calculated according to the following formular: Protein Relative phosphorylation data = Gp/Gup. Gp means the gradation level of target phosphorylation protein band and Gup means the gradation level of target total protein band. Then, the relative phosphorylation level can be calculated by the following formular: Protein Relative expression level = Pt/Pc ×100%. Pt means the relative phosphorylation data or target group and Pc means the relative phosphorylation data of control group.

In data set [2] the test system is SNU-16 cells. The data set is described as follows: Apoptosis analysis by flow cytometry (Annexin V-PE/7-AAD). Format: cell-based. The following applies: SNU-16, 72 h. The protocol:
(§1) Cell cycle and apoptosis assay were both measured by flow cytometry (FCM). The data were analyzed by the NovoExpress software (v1.4.0, Agilent, Santa Clara, CA, United States). For cell cycle assay, the cells were treated by different concentrations of RK-019 for 24 h, then were harvested and washed twice with cold phosphate buffered solution (PBS), followed by fixed with 75% ethanol overnight. Before test, the cells were washed twice with cold PBS and stained with PI stanning solution using cell cycle detecting kit (KGA512, KeyGEN, Nanjing, China), and then measured by FCM. […]
Background: In flow cytometry, cells or beads pass a laser one at a time.

Data set [3] relates to KATO III cells. The description is as above. The following applies: 72 h. Format: cell-based. The procedure:
as §1

Data set [4] has as its system SNU-16 cells. The data set is described as follows: Edu staining assay. Format: cell-based. To be noted: SNU-16, 100 nM, 24 h. The protocol:
(§2) For Edu staining assay, 1×10^5 cells were seeded in 24-well plates. RK-019 and DMSO were treated as soon as the cells seeded into the plates. After 24 h, the cells were incubated with the medium contained 10 µM Edu for 2 h. After that, the cells were collected and fixated to slide, and then stained with the Cell-Light EdU Apollo488 In Vitro Kit (C10310, Ribobio, Guangzhou, China). After staining, the samples were photographed and analyzed by the ImageJ software (v1.53a, Wayne Rasband, United States).

Data set [5] relates to KATO III cells. The data set is described as follows: Edu staining assay. The following applies: 100 nM, 24 h. It is filed as cell-based. The procedure:
as §2

Data set [6] concerns KATO III cells. The data set is described as follows: Cell cycle analysis by flow cytometry (PI staining). The following applies: 100 nM, 24 h. It is filed as cell-based. The procedure:
Cell cycle and apoptosis assay were both measured by flow cytometry (FCM). The data were analyzed by the NovoExpress software (v1.4.0, Agilent, Santa Clara, CA, United States). For cell cycle assay, the cells were treated by different concentrations of RK-019 for 24 h, then were harvested and washed twice with cold phosphate buffered solution (PBS), followed by fixed with 75% ethanol overnight. Before test, the cells were washed twice with cold PBS and stained with PI stanning solution using cell cycle detecting kit (KGA512, KeyGEN, Nanjing, China), and then measured by FCM. For apoptosis assay, the cells were harvested after treated with different concentrations of RK-019 for 24 h, and stained with a PE Annexin V Apoptosis Detection Kit according to the manufacturer’s protocol followed by detected using FCM.

Another data set has as its system CK1(y). The data set is described as follows: Kinase selectivity panel. It is filed as biochemical, yeast. To be noted: read-out: Inhibition(%) @ 1 µM RK-019. The protocol: Median-inhibitory concentration (IC50) and inhibition ratio of kinases by RK-019 was assessed by Eurofins Discovery Services (Dundee, United Kingdom) using the ATP-site competition binding assay in vitro. Firstly, gradient concentration of RK-019 against FGFRs, including FGFR1, FGFR2, FGFR3, and FGFR4, were tested. IC50 value was calculate by the GraphPad Prism software (v8.4.3, GraphPad Software, California, United States). Then, to measure the selectivity prolife of RK-019, a panel of 422 recombinant human kinases was screened at a concentration of 1 µM RK-019. Kinase MAP was drawn by webtools from Cell Signaling Technology, Inc. (www.cellsignal.com).

The next data set can be described thus: In vivo PK assay. On the set-up: species or system Sprague-Dawley rats. The following applies: rats. The procedure:
All animal experiments in this study have been approved by the Institutional Animal Care and Treatment Committee of Sichuan University in China and were carried out in accordance with the approved guidelines. Sprague-Dawley rats (weight 180–200 g, Beijing HJF bioscience, Beijing, China) were used in this experiment and maintained in a specific-pathogen-free (SPF) condition facility. RK-019 was dissolve in ethanol first, followed by mixed with Kolliphor EL, then filled with saline to the calculated volume. The formula was 12.5% ethanol, 12.5% Kolliphor EL, and 75% saline. RK-019 was administrated via i. v. 3 mg/kg or p. o. 30 mg/kg. After 5, 10, 15, 30, 60, 120, 240, 360, 600, and 1,440 min of administration, the blood samples were collected. Plasma fraction was obtained by centrifuged blood, then deproteinized with methanol containing an internal standard. The compound concentrations of the target compound in the supernatant were measured by liquid chromatography–mass spectrometry/mass spectrometry (LC-MS/MS).

The subject of data set [7] is SNU-16 cells. The data set is described as follows: Transwell migration and invasion assay. To be noted: SNU-16, 100 nM, 24 h. Format: cell-based. The procedure:
(§3) In the migration assay, 1×10^5 cells were resuspended in a serum-free medium, then added into the upper chamber, meanwhile the medium containing 10% FBS was added at the bottom with 100 nM RK-019. After 24 h incubation, the migration cells on the filters were fixed with 4% paraformldehyde and washed with PBS, then stained with crystal violet solution for 20 min. In the invasion assay, the upper surface of the transwell was coated with Matrigel (356234, Corning) for 30 min at 37°C until Matrigel was solidified. 1×10^5 cells were resuspended in a serum-free medium, then added into the upper chamber, meanwhile the medium containing 10% FBS was added at the bottom with 100 nM RK-019.After 24 h , the invasion cells on the filters were hatched and fixed, then stained with crystal violet.

The test system of data set [8] is KATO III cells. The data set is described as follows: Transwell migration and invasion assay. It is filed as cell-based. The following applies: 100 nM, 24 h. The procedure: as §3
The mark [9] stands for this setting: Sprague-Dawley, rat, plasma, iv, 3 mg/kg i.v.
Setting [10] is: Sprague-Dawley, rat, plasma, po, 30 mg/kg p.o.

On to `COc1cc(OC)cc(N(CCN[C@H](C)CO)c2ccc3ncc(-c4cnn(C)c4)c(=O)n3c2)c1` [RK-019, (R)-7-((3,5-dimethoxyphenyl) (2-((1-hydroxypropan-2-yl)amino)ethyl)amino)-3-(1-methyl-1H-pyrazol-4-yl)-4H-pyrido [1,2-a]pyrimidin-4-one], for which, in [1] (SNU-16, 0.1, 1, 5, 10, and 100 nM, 24 h), the “protein expression level of phosphorylated FGFR2 T653/T654” value is listed as “decreased”. Moreover, in data set [1] (SNU-16, 24 h), the “AKT and Erk phosphorylation levels” value is “decreased”; the “FRS2 and PLCγ phosphorylation levels” value is on record as “significantly decreased”. For the same compound, the “population of apoptotic cells (early and late apoptotic cells)” value with SNU-16 cells [2] was 45.5%. For the same compound, the “population of apoptotic cells (early and late apoptotic cells)” value in the data set on KATO III cells [3] stood at 32.7%. Also, in the data set with SNU-16 cells [4], the “number of Edu-positive stained cells” value was “significantly decreased”. Also, the “number of Edu-positive stained cells” value in the data set on KATO III cells [5] is “significantly decreased”. The G0/G1 proportion in the data set on KATO III cells [6] stood at 67.88%. Further, the activity in the data set with CK1(y) amounted to 94%. In the data set “In vivo PK assay” (setting [9]), the AUC(0-t) – broadly, the area under the concentration-time curve up to a stated or last time point – was 763 ± 50.8 ng·h/mL; the Cmax (commonly the peak of the concentration-time curve) was found to be 461 ± 47.8 ng/mL; the mean residence time MRT (as a rule, the average time that molecules of a dose stay in the body) was 1.64 ± 0.19 h; the half-life (usually the time needed for the level to fall by half in the phase considered) is 1.58 ± 0.29 h. Moreover, in “In vivo PK assay” (setting [10]), the area under the curve AUC(0-t) amounted to 1450 ng·h/mL; the peak concentration (Cmax) was 235 ± 77.8 ng/mL; the mean residence time (MRT) came out at 4.49 ± 1.19 h; the time of peak concentration (Tmax) (in general, the time from dosing to the highest level) was 2.67 ± 2.89 h. The half-life in the data set “In vivo PK assay” (setting [10]) was 2.83 ± 0.37 h. Besides, the “F% (oral relative bioavailability)” value in “In vivo PK assay” (30 mg/kg p.o) is 19.00%. For the same compound, the “migration and invasion ability” value in the data set with SNU-16 cells [7] is reported as “significantly suppress”. Besides, the “migration and invasion ability” value in the data set on KATO III cells [8] is recorded as “significantly suppress”.
